Where a name gives a salt, the structure may show the parent alone. Read-outs that look alike come from different tables or passages of the source.
Key:
[1] = tested on: cultured human mast cells; test: Degranulation inhibition test using cultured human mast cells (IgE cross-linking, β-Hexosaminidase release); format: cell-based; conditions: Mast cell, cultured human mast cells, read-out: human degranulation ave. IC50
Method: Degranulation Inhibition Test Using Cultured Human Mast Cells
(1) Separation of Hematopoietic Stem Cells;
After 10 to 60 mL of umbilical cord blood collected with heparin was diluted with an equivalent amount of buffer (0.5% BSA, 2 mM EDTA/PBS-), it was superposed on Ficoll-Paque (Amersham Pharmacia Biotech) (Ficoll/Blood (1:2)) and mononuclear leukocyte fraction was collected by centrifuging it at 400 G (1350 rpm) 4° C. for 30 minutes. After centrifugal washing (1500 rpm, 5 min, 4° C.×3) with buffer, the number of cells was counted and 0.1 mL of CD34 Progenitor Cell Isolation Kit (Miltenyi Biotec), Reagent A1 (Fc blocking) was added for 1×10^8 cells. After agitation, 0.1 mL of Reagent A2 (CD34 antibody-hapten) was added (final volume 0.5 mL/1×10^8 cells) and incubated at 9° C. for further 15 minutes after agitation. After centrifugal washing (1500 rpm, 5 min, 4° C.×3), it was resuspeded in a buffer (0.4 mL) and 0.1 mL of Reagent B (anti hapten antibody-microbeads) was added and agitated (final volume 0.5 mL/1×10^8 cells) and incubated at 9° C. for further 15 minutes. After centrifugal washing (1500 rpm, 5 min, 4° C.×2), it was resuspeded in a buffer (0.5 mL) and loaded on CS column (Miltenyi Biotec) set in MACS (MAgnetic Cell Sorting system; Miltenyi Biotec, Daiichi Pure Chemicals) and washed with 30 mL of buffer to remove CD34^− cells. The column was separated from MACS and eluted with 30 mL of buffer and CD34^+ cells bound to the column were collected and used as a hematopoietic stem cell population.
(2) Acquisition of Human Mast Cells by Long-Term Culturing of Hematopoietic Stem Cells;
The CD34^+ cells separated in (1) were resuspended in Iscove's Modified Dulbecco's Medium (IMDM, Gibco) containing human (rh)SCF (1 μg/mL, Peprotech), rhIL-6 (0.5 μg/mL, Peprotech), rhIL-3 (10 ng/mL, Peprotech), 1% Insulin-Transferrin (Gibco), 5×10^−5M 2-ME (Gibco), 0.1% BSA (Sigma) in a density of 1×10^6 cells/ml and disseminated on 24-well culture plate with a dose of 0.1 mL/well and 0.9 ml of IMDM (Methocult SF^BIT StemCell technology) containing 0.9% methyl cellulose was added and culturing was started. The above culture medium (excluding methyl cellulose) was added in a week and after that 100 μL/well of the above culture medium (further excluding IL-3) was added at an interval of every once a week so that cells were diluted to maintain 10^5 cells/mL/well order and cultured more than about 8 weeks and thereby human culture mast cells were obtained.
(3) Expression Enhancement of FcεRI and Inhibition Test IgE Cross-Linking Stimulating Degranulation;
rhIL-4 (final concentration 1 ng/mL, R & D) and Homo sapiens(h) IgE (final concentration 0.5 μg/mL, CHEMICON) were added to the obtained human culture mast cells, and they were incubated for 5 days to enhance the expression of FcεRI. After incubation, cells were collected and, after centrifugal washing (IMDM), they were disseminated on 96-well culture plate in 5×10^4 cells/80 μL/well.
10 μL of a compound 10-fold diluted with IMDM after dissolved in DMSO (DMSO final concentration 0.1%) was added and reacted at 37° C. for 10 minutes. Further, 10 μL of anti-hIgE Ab (CHEMICON) adjusted to 100 μg/mL (final concentration 10 μg/mL) was added and degranulation was caused by being stimulated at 37° C. for 30 minutes. After centrifugation, 50 μL/well of the supernatant was collected and stored at −40° C. untill the quantity of degranulation was measured. The measurement of quantity of degranulation was performed using enzymatic activity of β-Hexosaminidase contained in the granulates as an index. That is, an equivalent amount of p-nitrophenyl-N-acetyl-β-D-glucosaminide (1 mM) (containing 0.1% Triton X-100) which is a substrate of β-Hexosaminidase was added to 50 μL of the culture filtrate, and after reacted at 37° C. for 2 hours, the reaction was terminated by using 100 μL of Carbonate buffer (0.1M, pH 10). […]

[2] = biological target: GST-Syk Full Protein (human) (Homo sapiens, UniProt P43405); test: Syk kinase inhibition test (HTRF method); format: biochemical
In short: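 HTRF read-out: after EDTA termination and 1 h with XL665-streptavidin and Eu-anti-phosphotyrosine, the 665/620 nm ratio was measured. The reaction ran 30 min at 20–25 °C with final 6.4 nM human GST-Syk, 250 nM biotinylated peptide, 100 μM ATP, pH 7.0 HEPES buffer, 2% DMSO.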

[3] = anti-hIgE stimulation, β-Hexosaminidase index, average
[4] = HTRF, 100 μM ATP, 30 min room temperature, average, read-out: sykHTRF ave IC50
[5] = Tables 1-x, compounds A, read-out: sykHTRF ave IC50
[6] = Tables 2-x, thiophene compounds B
[7] = Tables 2-x, thiophene compounds B, read-out: sykHTRK ave IC50

Compound | IC50 [1, 3] | IC50 [2, 4] | further results
Cc1ccnc(Nc2cccc(-c3cnc([C@H]4CC[C@H](C(=O)N(CCO)CCO)CC4)s3)n2)c1 [Compound A-302] | 0.1 to 1 µM | 0.1 to 1 µM | –
Cc1ccnc(Nc2cccc(-c3cnc([C@@H](N)C(C)C)s3)n2)c1 [Compound A-37] | > 1 µM | 0.1 to 1 µM | –
CNc1ncc(-c2cccc(Nc3cc(C)ccn3)n2)s1 [Compound A-426, N-methyl-N-{5-[6-(4-methylpyridin-2-ylamino)pyridin-2-yl]thiazol-2-yl}amine] | 0.1 to 1 µM | < 0.1 µM | –
Cc1ccnc(Nc2cccc(-c3cnc(CN4CCN(S(C)(=O)=O)CC4)s3)n2)c1 [Compound A-198] | 0.1 to 1 µM | 0.1 to 1 µM | –
Cc1ccnc(Nc2cccc(-c3cnc([C@H]4CC[C@H](C(=O)N5CCCC(O)C5)CC4)s3)n2)c1 (stereo partly drawn) [Compound A-238] | 0.1 to 1 µM | 0.1 to 1 µM | –
CC(=O)N[C@@H](C)c1ncc(-c2cccc(Nc3cc(OCCN(C)C)ccn3)n2)s1 [Compound A-166] | > 1 µM | > 1 µM | –
Cc1ccnc(Nc2cccc(-c3cnc([C@H]4CC[C@H](C(=O)N5CCNC(=O)C5)CC4)s3)n2)c1 [Compound A-283, 4-(trans-4-{5-[6-(4-methylpyridin-2-ylamino)pyridin-2-yl]thiazol-2-yl}cyclohexanecarbonyl)piperazin-2-one] | > 1 µM | < 0.1 µM | –
Cc1ccnc(Nc2cccc(-c3cnc([C@H]4CC[C@H](C(=O)N5CCC(CO)CC5)CC4)s3)n2)c1 [Compound A-242] | 0.1 to 1 µM | 0.1 to 1 µM | –
Cc1ccnc(Nc2cccc(-c3cnc(N4CCN(C(=O)CCC(=O)O)CC4)s3)n2)c1 [Compound A-551, 4-(4-{5-[6-(4-methylpyridin-2-ylamino)pyridin-2-yl]thiazol-2-yl}piperazin-1-yl)-4-oxobutyric acid] | – | – | IC50 ([1]; Tables 1-x, compounds A): > 1 µM; IC50 [2, 5]: < 0.1 µM
OCc1ccnc(Nc2cccc(-c3cccs3)n2)c1 [Compound B-94] | – | – | IC50 [1, 6]: 0.1 to 1 µM; IC50 [2, 7]: 0.1 to 1 µM
CC(=O)N[C@@H](C)c1nc(C(C)=O)c(-c2cccc(Nc3cc(C)ccn3)n2)s1 [Compound A-126] | > 1 µM | > 1 µM | –
CNC(=O)C1CCN(c2ncc(-c3cccc(Nc4cc(OC)ccn4)n3)s2)CC1 [Compound A-436, N-methyl-1-{5-[6-(4-methoxypyridin-2-ylamino)pyridin-2-yl]thiazol-2-yl}piperidine-4-carboxamide] | – | – | IC50 ([1]; Tables 1-x, compounds A): 0.1 to 1 µM; IC50 [2, 5]: < 0.1 µM
Cc1ccnc(Nc2cccc(-c3cnc([C@H](Cc4ccccc4)NC(=O)OC(C)(C)C)s3)n2)c1 [Compound A-39] | > 1 µM | > 1 µM | –
Cc1ccnc(Nc2cccc(-c3cnc(C(=O)N4CCCC(O)C4)s3)n2)c1 (stereo not drawn) [Compound A-61] | 0.1 to 1 µM | 0.1 to 1 µM | –
Cc1ccnc(Nc2cccc(-c3cnc(CCCCCNC(=O)OC(C)(C)C)s3)n2)c1 [Compound A-127] | > 1 µM | > 1 µM | –
CC(=O)N[C@@H](C)c1ncc(-c2cccc(Nc3cc(-c4ccncc4)ccn3)n2)s1 [Compound A-79, N—((S)-1-{5-[6-([4,4′]bipyridinyl-2-ylamino)pyridin-2-yl]thiazol-2-yl}ethyl)acetamide] | 0.1 to 1 µM | < 0.1 µM | –
Cc1ccnc(Nc2cccc(-c3cnc([C@H]4CC[C@H](C(=O)NCCN(C)C)CC4)s3)n2)c1 [Compound A-309, N-(2-dimethylaminoethyl)-trans-4-{5-[6-(4-methylpyridin-2-ylamino)pyridin-2-yl]thiazol-2-yl}cyclohexanecarboxamide] | 0.1 to 1 µM | < 0.1 µM | –
CC(=O)c1ccc(-c2cccc(Nc3cc(CCO)ccn3)n2)s1 [Compound B-56] | – | – | IC50 [1, 6]: 0.1 to 1 µM; IC50 [2, 7]: 0.1 to 1 µM
Cc1ccnc(Nc2cccc(-c3cnc(N4CCC[C@@H](CO)C4)s3)n2)c1 [Compound A-532, ((R)-1-{5-[6-(4-methylpyridin-2-ylamino)pyridin-2-yl]thiazol-2-yl}piperidin-3-yl)methanol] | – | – | IC50 ([1]; Tables 1-x, compounds A): < 0.1 µM; IC50 [2, 5]: < 0.1 µM
C[C@H](O)c1ncc(-c2cccc(Nc3cc(OCCO)ccn3)n2)s1 [Compound A-344, (S)-1-(5-{6-[4-(2-hydroxyethoxy)pyridin-2-ylamino]pyridin-2-yl}thiazol-2-yl)ethanol] | < 0.1 µM | < 0.1 µM | –
CC(=O)c1ccc(-c2cccc(Nc3cc(Cl)ccn3)n2)s1 [Compound B-74, 1-{5-[6-(4-chloropyridin-2-ylamino)pyridin-2-yl]thiophen-2-yl}ethanone] | – | – | IC50 [1, 6]: 0.1 to 1 µM; IC50 [2, 7]: < 0.1 µM
CC(=O)N[C@@H](C)c1nc(N)c(-c2cccc(Nc3cc(C)ccn3)n2)s1 [Compound A-115] | > 1 µM | > 1 µM | –
COC(=O)CN1CCC(c2ncc(-c3cccc(Nc4cc(C)ccn4)n3)s2)CC1 [Compound A-184] | 0.1 to 1 µM | 0.1 to 1 µM | –
CC(=NO)c1sc(-c2cccc(Nc3cc(C)ccn3)n2)cc1C [Compound B-42] | – | – | IC50 [1, 6]: > 1 µM; IC50 [2, 7]: 0.1 to 1 µM
CC(=O)Nc1nc(C)c(-c2cncc(Nc3cc(C)ccn3)n2)s1 [Compound A-21, N-{4-methyl-5-[6-(4-methylpyridin-2-ylamino)pyrazin-2-yl]thiazol-2-yl}acetamide] | 0.1 to 1 µM | < 0.1 µM | –
Cc1ccnc(Nc2cccc(-c3cnc(N(C)c4ccc(CC(=O)O)cc4)s3)n2)c1 [Compound A-617, [4-(N-methyl-N-{5-[6-(4-methylpyridin-2-ylamino)pyridin-2-yl]thiazol-2-yl}amino)phenyl]acetic acid dihydrochloride] | – | – | IC50 ([1]; Tables 1-x, compounds A): > 1 µM; IC50 [2, 5]: < 0.1 µM
CC(=O)N(C)c1ncc(-c2cccc(Nc3cc(C)ccn3)n2)s1 [Compound A-424, N-methyl-N-{5-[6-(4-methylpyridin-2-ylamino)pyridin-2-yl]thiazol-2-yl}acetamide] | 0.1 to 1 µM | < 0.1 µM | –
Cc1ccnc(Nc2cccc(-c3cnc([C@H]4CC[C@H](C(=O)N[C@H](CO)Cc5cnc[nH]5)CC4)s3)n2)c1 [Compound A-304, N—[(S)-2-hydroxy-1-(3H-imidazol-4-ylmethyl)ethyl]-trans-4-{5-[6-(4-methylpyridin-2-ylamino)pyridin-2-yl]thiazol-2-yl}cyclohexanecarboxamide] | > 1 µM | < 0.1 µM | –
CC(O)c1ccc(-c2cccc(Nc3cc(CCO)ccn3)n2)s1 (stereo not drawn) [Compound B-55, 1-(5-{6-[4-(2-hydroxyethyl)pyridin-2-ylamino]pyridin-2-yl}thiophen-2-yl)ethanol] | – | – | IC50 [1, 6]: 0.1 to 1 µM; IC50 [2, 7]: < 0.1 µM
CCOC(=O)Cc1ccnc(Nc2cccc(-c3cnc([C@@H]4CCC(=O)N4)s3)n2)c1 [Compound A-332] | 0.1 to 1 µM | 0.1 to 1 µM | –
